Source: patent publication US11773076B2, “Crystalline forms of a somatostatin modulator” (Crinetics Pharmaceuticals, Inc., priority 2021, dated 2023)
Entries after “also recorded” stand apart in the source; their conditions may differ.

Columns and labels:
SSTR5 = SSTR5 (Homo sapiens, UniProt P35346); assay: SSTR5 agonist potency; assay type: cell-based
SSTR2 = SSTR2 (Homo sapiens, UniProt P30874); assay: Selectivity for SSTR5 over SSTR2; assay type: cell-based
[1] = Dynamic Vapor Sorption (DVS); assay type: physicochemical
Description: Dynamic Vapor Sorption (DVS) was performed using a DVS Intrinsic 1. The sample (10-15 mg) was loaded into a sample pan, suspended from a microbalance and exposed to a humidified stream of nitrogen gas. The sample was held for a minimum of 5 min at each level and only progressed to the next humidity level if there was <0.002% change in weight between measurements (interval: 60 seconds) or 240 min had elapsed. The following program was used: • (1) Equilibration at 50% RH • (2) 50% to 2% (50%, 40%, 30%, 20%, 10% and 2%) • (3) 2% to 95% (2%, 10%, 20%, 30%, 40%, 50%, 60%, 70%, 80%, 90%, 95%) • (4) 95% to 2% (95%, 80%, 70%, 60%, 50%, 40%, 30%, 20%, 10%, 2%) • (5) 2% to 50% (2%, 10%, 20%, 30%, 40%, 50%)

[2] = Stability of solid state forms on humidity exposure (static storage, XRPD re-analysis); assay type: physicochemical; settings: 40° C./75% RH for 7 days
Description: Samples were assessed for stability under static storage conditions of 40° C./75% RH for 7 days. The samples were then re-analyzed by XRPD.

[3] = Thermal stability of crystalline Pattern A (DSC cycling, then XRPD); assay type: physicochemical
Description: Two samples of Crystalline Pattern A were prepared and cycled in the DSC and then analyzed by XRPD.
The first sample of Pattern A (9.4 mg) was heated from 30° C. to 150° C. and then cooled back to 30° C.
The second sample of Pattern A (14.4 mg) was heated from 30° C. to 118° C. and then cooled back to 30° C. The sample recovered after the DSC experiment appeared as a light-amber pellet that was easily pressed into a powder on the XRPD plate.

[4] = Dry and solvent drop milling, XRPD after milling; assay type: physicochemical
Description: Dry and solvent drop milling was done using a small Wig-L-Bug ball mill with ¼″ stainless steel ball as milling media. About 25 mg of crystalline Pattern A of Compound 1 was weighed into a milling capsule and one volume of solvent (solvent drop) was added. The milling was carried out at 3,800 rpm in three steps of 30 s each. The solids were recovered after milling and analyzed by XRPD.

[5] = Thermodynamic stability: one-week slurry stability of crystalline Pattern A (XRPD); assay type: physicochemical
Description: One-week slurry stability studies were performed on crystalline Pattern A in five solvents and solvent systems at room temperature (20-24° C.) and at 10° C. About 25 mg of Compound 1 was weighed into 2 mL vials and the solvent was added to each vial at room temperature with stirring. The solvents and solvent systems used in the experiments were: IPA:water (1:1 vol), THF:heptane (1:2 vol), ACN:heptane (1:2 vol), MIBK:heptane (1:2 vol), and IPAc.
For the IPA:water (1:1 vol) samples, 10 vol. of IPA:water (1:1 vol) was added, whereas 7 vol. were initially added for the other solvent systems. One set of vials was left to stir at room temperature and the other set was transferred to a cold stir plate at 10° C. After 5 days, samples that remained in solutions were seeded with Pattern A (0.5-1 mg) and left to stir for one week.

[6] = Stability of crystalline patterns on drying (XRPD); assay type: physicochemical; settings: for XRPD after drying on the benchtop: 2 days
Description: Samples of amorphous Compound 1 (either 30 mg/mL or 60 mg/mL) were dissolved in DCM and were allowed to evaporate either at room temperature or 45° C. After stirring for about 40 min, the resulting slurries were filtered and analyzed by XRPD. Pattern B was obtained for the wet cakes of recovered solids. Pattern B changed to C after drying under static vacuum at 50° C. overnight.
In a separate experiment, about 71 mg of amorphous Compound 1 was weighed into a 4 mL vial and 10 vol. (710 μL) of DCM was added at room temperature. After stirring for 5 min, a thin slurry formed. XRPD analysis of a sample taken from the slurry after 1 h confirmed Pattern B. The vial was then transferred to a fridge at 5° C. for ˜3 h and then to a freezer at −20° C. overnight. Small amount of solid settled to the bottom of the vial after cooling at −20° C., the yield was very low, about 6% w/w. XRPD confirmed Pattern B. Pattern B was left to dry on the benchtop at room temperature for 2 days. XRPD analysis on the sample after 2 days confirmed that Pattern B was stable. Thermal analysis on a small sample (0.7 mg) of Pattern B was performed by DSC.
A sample of 48.9 mg of amorphous Compound 1 and 3 vol. (˜150 μL) of MIBK:heptane was prepared at 45° C. A small amount of gummy solid formed after addition of the solvent system. The vial was vortexed and sonicated few times to break the gum and a thin slurry was obtained after 5 min of stirring. The sample was left to stir at 45° C. for about 5 h and then transferred to a stir plate at room temperature. After stirring overnight at room temperature, the sample was filtered and the solid was collected for XRPD analysis. The yield was low, ˜7% w/w.
Thermal analysis on a small sample of Pattern D was performed by DSC.

SSTR2, sequence (P30874 whole entry): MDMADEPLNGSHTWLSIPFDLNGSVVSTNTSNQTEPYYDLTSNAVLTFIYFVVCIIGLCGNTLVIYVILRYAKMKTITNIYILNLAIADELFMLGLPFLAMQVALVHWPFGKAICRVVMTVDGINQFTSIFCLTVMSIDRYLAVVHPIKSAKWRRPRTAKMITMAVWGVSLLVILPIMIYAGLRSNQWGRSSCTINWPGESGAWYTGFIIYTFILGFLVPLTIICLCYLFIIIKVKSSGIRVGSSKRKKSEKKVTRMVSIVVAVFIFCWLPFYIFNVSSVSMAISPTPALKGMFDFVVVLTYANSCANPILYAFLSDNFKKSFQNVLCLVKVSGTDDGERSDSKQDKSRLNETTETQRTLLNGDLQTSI
SSTR5, sequence (P35346 whole entry): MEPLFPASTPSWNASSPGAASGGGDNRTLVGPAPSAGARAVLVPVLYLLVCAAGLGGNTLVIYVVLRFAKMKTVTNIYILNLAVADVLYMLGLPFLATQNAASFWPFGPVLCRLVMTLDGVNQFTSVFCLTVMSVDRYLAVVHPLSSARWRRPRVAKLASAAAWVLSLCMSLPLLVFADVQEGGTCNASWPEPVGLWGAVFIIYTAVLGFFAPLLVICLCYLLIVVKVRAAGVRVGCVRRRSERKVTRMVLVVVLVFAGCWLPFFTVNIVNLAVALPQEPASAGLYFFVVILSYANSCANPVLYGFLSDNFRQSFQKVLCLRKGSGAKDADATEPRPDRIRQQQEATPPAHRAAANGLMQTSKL

SMILES: C[C@H](NC(=O)c1cnc(C#N)c(-c2cc(F)cc(F)c2)c1N1CC[C@H](N)C1)C(F)(F)F [Compound 1, 4-[(3S)-3-aminopyrrolidin-1-yl]-6-cyano-5-(3,5-difluorophenyl)-N-[(2S)-1,1,1-trifluoropropan-2-yl]pyridine-3-carboxamide]
- EC50 (SSTR5): < 1 nM
- selectivity for SSTR5 over SSTR2 (SSTR2): > 500 fold

SMILES: C[C@H](NC(=O)c1cnc(C#N)c(-c2cc(F)cc(F)c2)c1N1CC[C@H](N)C1)C(F)(F)F [Pattern A, 4-[(3S)-3-aminopyrrolidin-1-yl]-6-cyano-5-(3,5-difluorophenyl)-N-[(2S)-1,1,1-trifluoropropan-2-yl]pyridine-3-carboxamide]
- total mass change between 2 and 95% RH ([1]; DVS, 2 to 95% RH): 0.7%
- mass gain from 20 to 75% RH ([1]; DVS, 20 to 75% RH): 0.37%
- mass loss from 50 to 2% RH ([1]; DVS, 50 to 2% RH): 0.2%
- XRPD pattern after DVS analysis ([1]; sample measured by DVS, 2-95% RH): unchanged after DVS analysis
- XRPD after static storage [2]: no change in the XRPD
- XRPD after DSC thermal cycling ([3]; heated from 30° C. to 118° C. and cooled back to 30° C.): stable after the DSC treatment
- XRPD after DSC thermal cycling ([3]; heated from 30° C. to 150° C. and cooled back to 30° C.): amorphous pattern
- crystallinity (XRPD) after dry milling ([4]; dry milling, 3,800 rpm, three steps of 30 s): lost after dry milling resulting in amorphous material
- crystallinity (XRPD) after solvent milling ([4]; solvent drop milling in IPAc, water, and MIBK): remained stable
- XRPD pattern after one-week slurry ([5]; MIBK:heptane (1:2 vol) at 10° C.): Pattern B
- XRPD pattern after one-week slurry ([5]; MIBK:heptane (1:2 vol) at room temperature): Pattern A+trace of a new pattern, Pattern D
- XRPD pattern after one-week slurry ([5]; remaining six analysable samples: IPA:water (1:1), THF:heptane (1:2), IPAc, room temperature and 10° C.): Pattern A

SMILES: C[C@H](NC(=O)c1cnc(C#N)c(-c2cc(F)cc(F)c2)c1N1CC[C@H](N)C1)C(F)(F)F [Pattern D, 4-[(3S)-3-aminopyrrolidin-1-yl]-6-cyano-5-(3,5-difluorophenyl)-N-[(2S)-1,1,1-trifluoropropan-2-yl]pyridine-3-carboxamide]
- XRPD after drying under active vacuum at room temperature ([6]; overnight, active vacuum, room temperature): converted to C
- XRPD after drying on the benchtop ([6]; room temperature): remained stable

SMILES: C[C@H](NC(=O)c1cnc(C#N)c(-c2cc(F)cc(F)c2)c1N1CC[C@H](N)C1)C(F)(F)F [Pattern B, 4-[(3S)-3-aminopyrrolidin-1-yl]-6-cyano-5-(3,5-difluorophenyl)-N-[(2S)-1,1,1-trifluoropropan-2-yl]pyridine-3-carboxamide]
- XRPD after drying on the benchtop ([6]; room temperature): stable
- XRPD after drying under vacuum at 50° C. ([6]; vacuum, 50° C.): changed to C; also recorded: converted to Pattern C
